This note sets out measurements from patent US8557859B2, “Immunomodulatory compositions” (Summit (Wales) Limited, priority 2003, dated 2013).

Molecules are shown by their SMILES.

The assay concerns Dendritic cells. The experiment in a line: Induction of IL-12 secretion in dendritic cells (ELISA). The format is cell-based, BALB/c mice. To be noted: dendritic cells; compounds 50 μg/ml and 20 μg/ml, 24 hrs (or 48 hrs). The procedure:
BALB/c male and female mice bred and maintained at the University of Strathclyde under conventional conditions were used at 8 weeks old.
Bone marrow was obtained from the femurs of mice. The femurs were washed in 70% ethanol and placed in a clean petri dish. Dendritic cell (DC) medium (2.5% granulocyte-macrophage colony-stimulating factor (GM-CSF), 10% […] foetal calf serum, 1% L-glutamine, 1% Penicillin/Streptomycin in RPMI-1640 medium) was injected into the bone marrow of the femur by a pumping action and the cells and medium were collected. 1 ml of the cells in medium was added to a 75 cm^2 flask with 15 mls of DC medium. The flasks were then incubated at 37° C., 5% CO2 to allow DC growth and development. After 5 days an additional 10 mls of DC medium was added.
After 10 days of incubation of bone marrow with GM-CSF, the dendritic cells were harvested. This process was carried out in a tissue culture hood. The contents of the flasks were poured into centrifuge tubes to ensure collection of floating DCs. Approximately 10 mls of cooled phosphate buffered saline (PBS) was added to each empty flask, the flasks gently agitated and the contents collected. […] The collected contents of the flasks were centrifuged for 5 minutes at 200 g and the pellet resuspended in 2 mls of DC medium without GM-CSF. A cell count was then carried out.
Cells were counted using a haemocytometer. Approximately 20 μl of the resuspended cells was pipetted into the chamber of the haemocytometer, the cells were adjusted to the correct cell concentration (approx. 5×10^4, and not less than 1×10^4, per well) and then plated out for assay.
The plates were incubated overnight at 37° C. with 5% CO2 and allowed to settle (harvesting stimulates them). The next day the compounds (50 μg/ml and 20 μg/ml) and controls were added then again incubated at 37° C. with 5% CO2 for 24 hrs (or 48 hrs). Harvesting and addition of the compounds was all done in a hood. The plates were then frozen to kill the cells and once defrosted the supernatant analysed as described below.
Using an enzyme linked immunosorbent assay (ELISA) IL-12 concentration in the supernatants was measured. All reagents used in this assay were from PharMingen. A 96-well flat-bottomed ELISA plate was coated with purified rat anti-mouse IL-12 (p40/p70) MAb (Cat no. 554478) at 2 μg/ml diluted in PBS pH 9.0 at 50 μl/well. The plate was then covered in cling film and incubated at 4° C. Following incubation the plate was washed 3 times in washing buffer and dried. 200 μl of blocking buffer (10% foetal calf serum in PBS pH 7.0) was added to each well then covered in cling film and incubated at 37° C. for 45 minutes. The plate was washed 3 times and dried. Recombinant mouse Il-12 standard was added at 30 μl in duplicate wells, starting at 10 ng/ml then 5, 2.5, 1.25, 0.625, 0.31, 0.156, 0.078, 0.039, 0.020, 0.010, 0.005 ng/ml. Standards were diluted in blocking buffer. The supernatant samples were added in at 50 μl/well. The plate was then covered in cling film and incubated for 2 hours at 37° C. The plate was then washed 4 times, dried and the secondary antibody added.
Biotin labelled anti-mouse IL-12 (p40/p70) MAb (Cat no. 18482D) at 1 μg/ml (diluted in blocking buffer) was added to each well at a volume of 100 μl/well. The plate was covered in cling film and incubated at 37° C. for 1 hour. The plate was then washed 5 times, dried and the conjugate added. Streptavidin-AKP (Cat no. 13043E) at 100 μl/well was added at a dilution of 1/2000 in blocking buffer followed by incubation under cling film at 37° C. for 45 minutes.
The plate was finally washed 6 times, dried and the substrate added. pNPP (Sigma) in glycine buffer at 1 mg/ml was added at 100 μl/well. The plate was then covered in tinfoil, incubated at 37° C. and checked every 30 minutes for a colour change.
The plate was then read at 405 nm using a SPECTRAmax 190 spectrometer.

As to `OC[C@@H]1[C@@H](O)[C@H](O)[C@H]2[C@H](O)[C@@H](O)CN21` [casuarine (8), (1R,2R,3R,6S,7S,7aR)-3-(hydroxymethyl)-1,2,6,7-tetrahydroxypyrrolizidine], the “IL-12 RELEASE” value is listed as “Yes”.
